The numbers were not newly measured in patent publication US11938222B2, “Pregabalin sustained release composition and method for preparing the same” (priority 2018, dated 2024), which cites them from elsewhere.

Each structure is given as a SMILES string. Where only a bound is given, the exact number is not on record here.

The conditions of this data set: gastrointestinal tract, humans.

On to `CC(C)C[C@H](CN)CC(=O)O` [pregabalin, (S)-3-aminomethyl-5-methylhexanoic acid], for which the average absorption window is no more than 6 h.
